Assay results taken from the CheMixHub viscosity set.

Assay: xn = mol fraction of the nth substance listed

BrC(Br)Br + CCCC#N
298.15 K, 101 kPa
Conditions | viscosity [mPa·s]
x1 = 0.09373 | 0.6216
x1 = 0.2439 | 0.8407
x1 = 0.3911 | 1.021
x1 = 0.4986 | 1.169
x1 = 0.7 | 1.46
x1 = 0.9 | 1.724

CC12CC3CC(C1)CC(C)(C3)C2 + CCCCC1CCCCC1
viscosity [mPa·s], 100 kPa
Conditions | x1 = 0.083 | x1 = 0.1716 | x1 = 0.2652 | x1 = 0.3625 | x1 = 0.4617 | x1 = 0.5636 | x1 = 0.662 | x1 = 0.7728 | x1 = 0.8838
293.15 K | 1.407 | 1.518 | 1.654 | 1.802 | 1.989 | 2.215 | 2.472 | 2.797 | 3.222
298.15 K | 1.293 | 1.391 | 1.512 | 1.643 | 1.805 | 2.007 | 2.229 | 2.518 | 2.885
303.15 K | 1.194 | 1.281 | 1.389 | 1.506 | 1.647 | 1.828 | 2.024 | 2.272 | 2.601
313.15 K | 1.03 | 1.099 | 1.187 | 1.28 | 1.393 | 1.537 | 1.692 | 1.883 | 2.145
323.15 K | 0.893 | 0.951 | 1.008 | 1.088 | 1.182 | 1.289 | 1.414 | 1.583 | 1.774

BrC(Br)Br + CCCCCC
298.15 K, 101 kPa
Conditions | viscosity [mPa·s]
x1 = 0.1058 | 0.3543
x1 = 0.2044 | 0.402
x1 = 0.2976 | 0.4904
x1 = 0.3989 | 0.5721
x1 = 0.5 | 0.6698
x1 = 0.6001 | 0.8212
x1 = 0.6743 | 0.9353
x1 = 0.8 | 1.217
x1 = 0.8948 | 1.475

C=Cc1ccccc1 + CCCCCC
viscosity [mPa·s], 101.33 kPa
Conditions | x1 = 0.1019 | x1 = 0.1987 | x1 = 0.3024 | x1 = 0.4003 | x1 = 0.4992 | x1 = 0.6023 | x1 = 0.7055 | x1 = 0.8021 | x1 = 0.8935
298.15 K | 0.314 | 0.334 | 0.362 | 0.385 | 0.417 | 0.457 | 0.507 | 0.566 | 0.632
303.15 K | 0.302 | 0.319 | 0.346 | 0.367 | 0.397 | 0.436 | 0.482 | 0.534 | 0.597
308.15 K | 0.29 | 0.305 | 0.328 | 0.351 | 0.379 | 0.412 | 0.455 | 0.505 | 0.56

CCC(C)(C)OC + CCCCCC
viscosity [mPa·s], 100 kPa
Conditions | x1 = 0.0498 | x1 = 0.1632 | x1 = 0.2584 | x1 = 0.3742 | x1 = 0.4276 | x1 = 0.5464 | x1 = 0.6121 | x1 = 0.7457 | x1 = 0.8625 | x1 = 0.9488
293.15 K | 0.317 | 0.325 | 0.332 | 0.343 | 0.349 | 0.363 | 0.372 | 0.391 | 0.412 | 0.429
303.15 K | 0.287 | 0.293 | 0.3 | 0.31 | 0.315 | 0.33 | 0.339 | 0.362 | 0.384 | 0.407
313.15 K | 0.254 | 0.259 | 0.266 | 0.277 | 0.282 | 0.296 | 0.304 | 0.323 | 0.343 | 0.358

CCCCCCCCO + CCCCCC
298.15 K, 101.33 kPa
Conditions | viscosity [mPa·s]
x2 = 0.1657 | 4.313
x2 = 0.2119 | 3.677
x2 = 0.274 | 2.968
x2 = 0.3717 | 2.093
x2 = 0.4775 | 1.432
x2 = 0.5556 | 1.096
x2 = 0.6659 | 0.759
x2 = 0.7638 | 0.559
x2 = 0.8406 | 0.443
x2 = 0.9211 | 0.35
x2 = 0.9597 | 0.319

C=Cc1ccccc1 + CCCCCCC
viscosity [mPa·s], 101.33 kPa
Conditions | x1 = 0.1018 | x1 = 0.202 | x1 = 0.2988 | x1 = 0.3984 | x1 = 0.4989 | x1 = 0.5997 | x1 = 0.6992 | x1 = 0.8006 | x1 = 0.8979
298.15 K | 0.398 | 0.412 | 0.427 | 0.448 | 0.471 | 0.5 | 0.536 | 0.581 | 0.638
303.15 K | 0.379 | 0.393 | 0.406 | 0.425 | 0.445 | 0.473 | 0.508 | 0.55 | 0.599
308.15 K | 0.36 | 0.372 | 0.386 | 0.405 | 0.423 | 0.45 | 0.481 | 0.519 | 0.565

CCCCCCCCO + CCCCCCC
viscosity [mPa·s], 101.33 kPa
Conditions | 298.15 K | 308.15 K
x1 = 0.0448 | 0.4411 | 0.3932
x1 = 0.0922 | 0.4999 | 0.4375
x1 = 0.1826 | 0.6375 | 0.5457
x1 = 0.278 | 0.8198 | 0.6942
x1 = 0.3705 | 1.072 | 0.8964
x1 = 0.469 | 1.464 | 1.149
x1 = 0.5664 | 1.902 | 1.594
x1 = 0.6697 | 2.7 | 2.213
x1 = 0.7784 | 3.885 | 3.021
x1 = 0.8336 | 4.545 | 3.466
x1 = 0.8844 | 5.124 | 3.885
x1 = 0.9381 | 6.024 | 4.399

BrC(Br)Br + CCCCCCC(C)O
viscosity [mPa·s], 101.3 kPa
Conditions | x1 = 0.104 | x1 = 0.199 | x1 = 0.3 | x1 = 0.403 | x1 = 0.502 | x1 = 0.603 | x1 = 0.704 | x1 = 0.801 | x1 = 0.899
298.15 K | 5.244 | 4.606 | 3.91 | 3.391 | 2.965 | 2.623 | 2.337 | 2.123 | 1.969
303.15 K | 4.336 | 3.855 | 3.348 | 2.937 | 2.594 | 2.335 | 2.104 | 1.943 | 1.83
308.15 K | 3.625 | 3.274 | 2.894 | 2.566 | 2.288 | 2.084 | 1.913 | 1.785 | 1.698

C=Cc1ccccc1 + CCCCCCCC
Conditions | viscosity [mPa·s]
293.15 K, 101 kPa, x1 = 0.622 | 0.585
298.15 K, 101 kPa, x1 = 0.622 | 0.55
298.15 K, 101.33 kPa, x1 = 0.1009 | 0.512
298.15 K, 101.33 kPa, x1 = 0.1995 | 0.514
298.15 K, 101.33 kPa, x1 = 0.331 | 0.516
298.15 K, 101.33 kPa, x1 = 0.3985 | 0.522
298.15 K, 101.33 kPa, x1 = 0.4971 | 0.535
298.15 K, 101.33 kPa, x1 = 0.5989 | 0.558
298.15 K, 101.33 kPa, x1 = 0.7005 | 0.587
298.15 K, 101.33 kPa, x1 = 0.8009 | 0.616
298.15 K, 101.33 kPa, x1 = 0.8988 | 0.657
303.15 K, 101 kPa, x1 = 0.622 | 0.52
303.15 K, 101.33 kPa, x1 = 0.1009 | 0.481
303.15 K, 101.33 kPa, x1 = 0.1995 | 0.485
303.15 K, 101.33 kPa, x1 = 0.331 | 0.488
303.15 K, 101.33 kPa, x1 = 0.3985 | 0.495
303.15 K, 101.33 kPa, x1 = 0.4971 | 0.5
303.15 K, 101.33 kPa, x1 = 0.5989 | 0.524
303.15 K, 101.33 kPa, x1 = 0.7005 | 0.552
303.15 K, 101.33 kPa, x1 = 0.8009 | 0.575
303.15 K, 101.33 kPa, x1 = 0.8988 | 0.617
308.15 K, 101.33 kPa, x1 = 0.1009 | 0.461
308.15 K, 101.33 kPa, x1 = 0.1995 | 0.462
308.15 K, 101.33 kPa, x1 = 0.331 | 0.464
308.15 K, 101.33 kPa, x1 = 0.3985 | 0.467
308.15 K, 101.33 kPa, x1 = 0.4971 | 0.476
308.15 K, 101.33 kPa, x1 = 0.5989 | 0.495
308.15 K, 101.33 kPa, x1 = 0.7005 | 0.521
308.15 K, 101.33 kPa, x1 = 0.8009 | 0.55
308.15 K, 101.33 kPa, x1 = 0.8988 | 0.581
313.15 K, 101 kPa, x1 = 0.3202 | 0.43
313.15 K, 101 kPa, x1 = 0.622 | 0.465
323.15 K, 101 kPa, x1 = 0.622 | 0.418
323.15 K, 101 kPa, x1 = 0.8145 | 0.462
323.15 K, 101 kPa, x1 = 0.9081 | 0.479

CCCCCCCCO + CCCCCCCC
298.15 K, 101.33 kPa
Conditions | viscosity [mPa·s]
x1 = 0.0015 | 0.491
x2 = 0.0566 | 6.369
x2 = 0.1294 | 5.058
x2 = 0.2321 | 3.637
x2 = 0.353 | 2.469
x2 = 0.4724 | 1.705
x2 = 0.527 | 1.452
x2 = 0.6297 | 1.094
x2 = 0.778 | 0.764
x2 = 0.8294 | 0.683
x2 = 0.9163 | 0.572

CC12CC3CC(C1)CC(C)(C3)C2 + CCCCCCCCC
viscosity [mPa·s], 100 kPa
Conditions | x1 = 0.1004 | x1 = 0.2014 | x1 = 0.3 | x1 = 0.4003 | x1 = 0.5004 | x1 = 0.6001 | x1 = 0.7005 | x1 = 0.7994 | x1 = 0.8997
293.15 K | 0.802 | 0.912 | 1.033 | 1.203 | 1.39 | 1.647 | 1.986 | 2.44 | 2.984
298.15 K | 0.748 | 0.848 | 0.958 | 1.111 | 1.279 | 1.501 | 1.8 | 2.183 | 2.68
303.15 K | 0.699 | 0.791 | 0.891 | 1.028 | 1.182 | 1.377 | 1.635 | 1.992 | 2.419
308.15 K | 0.656 | 0.74 | 0.831 | 0.956 | 1.093 | 1.267 | 1.509 | 1.816 | 2.196
313.15 K | 0.617 | 0.694 | 0.777 | 0.891 | 1.018 | 1.18 | 1.399 | 1.661 | 2
318.15 K | 0.582 | 0.652 | 0.728 | 0.833 | 0.947 | 1.09 | 1.282 | 1.527 | 1.829
323.15 K | 0.55 | 0.615 | 0.685 | 0.78 | 0.885 | 1.018 | 1.193 | 1.411 | 1.68
